Here are results for 1 compound from patent US9533964B2, “Piperazine substituted bridged spiro[2.4]heptane derivatives as ALX receptor agonists” (Actelion Pharmaceuticals Ltd, priority 2013, dated 2017).

The target of data set [1] is T1, recombinant human ALX receptor (Homo sapiens, UniProt P25090).
T1 construct: expressed in transfected cells; host or cells: HEK293 (HEK293-hALXR-Gα16)
T1 sequence (P25090 1-351): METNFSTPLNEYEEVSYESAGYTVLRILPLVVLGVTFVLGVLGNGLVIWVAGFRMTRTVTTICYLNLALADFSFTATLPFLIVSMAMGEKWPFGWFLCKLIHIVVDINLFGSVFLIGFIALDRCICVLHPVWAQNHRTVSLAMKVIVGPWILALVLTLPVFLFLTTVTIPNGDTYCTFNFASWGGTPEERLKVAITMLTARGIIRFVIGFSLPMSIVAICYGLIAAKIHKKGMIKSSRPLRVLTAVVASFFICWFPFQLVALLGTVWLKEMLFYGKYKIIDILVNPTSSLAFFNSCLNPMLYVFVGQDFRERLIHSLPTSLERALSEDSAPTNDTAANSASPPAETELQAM
The experiment in a line: Intracellular calcium measurements (FLIPR), ALX receptor agonistic activity. It counts as cell-based. Conditions: HEK293-hALXR-Gα16 cells; median of n replications; normalized to WKYMVm 10 nM; read-out: EC50, agonistic activity with respect to the ALX receptor. As for the experimental part:
The ALX receptor agonistic activity of the compounds of formula (I) is determined in accordance with the following experimental method.
Intracellular Calcium Measurements:
Cells expressing recombinant human ALX receptor and the G-protein Gα16 (HEK293-hALXR-Gα16) were grown to 80% confluency in Growing Medium (GM). Cells were detached from culture dishes with a cell dissociation buffer (Invitrogen, 13151-014), and collected by centrifugation at 1′000 rpm at rt for 5 min in Assay Buffer (AB) (equal parts of Hank's BSS (Gibco, 14065-049) and DMEM without Phenol Red (Gibco, 11880-028)). After 60 min incubation at 37° C. under 5% CO2 in AB supplemented with 1 μM Fluo-4 (AM) (Invitrogen, F14202) and 20 mM HEPES (Gibco, 15630-056), the cells were washed and resuspended in AB. They were then seeded onto 384-well FLIPR assay plates (Greiner, 781091) at 50′000 cells in 70 μl per well and sedimented by centrifugation at 1′000 rpm for 1 min. Stock solutions of test compounds were made up at a concentration of 10 mM in DMSO, and serially diluted in AB to concentrations required for activation dose response curves. WKYMVm (Phoenix Peptides) was used as a reference agonist. […] Changes in fluorescence were monitored before and after the addition of test compounds at lex=488 nm and lem=540 nm. […]

A short description of data set [2]: Plasma stability assay, human serum. It counts as in vitro ADME. On the procedure:
(§1) Rat or human serum adjusted at pH 7.4 with lactic acid or ammonium hydroxide, were equilibrated at 37° C. under orbital shaking in an incubator containing 5% CO2. The reaction was initiated by the addition of 1 μM of compounds (1.5 μl of 1 mM stock solution in DMSO in 1498.5 μl of plasma). At 0.01, 0.25, 0.5, 1, 2, 3, 4 and 6 h, aliquots (100 μl) were transferred in a 96 well plate containing 300 μl MeOH placed on ice to stop the reaction. After vortexing for 20 min at 1400 rpm on an Eppendorf thermomixer, the plates were centrifuged at 3220 g for 20 min at 4° C. and the supernatants were analyzed with LC-MS/MS. Calibration samples in plasma containing 0.1% of dichlorvos were prepared and analysed in parallel to the incubation samples to allow the quantification. Half lives (T1/2) in hours were then calculated. In addition the remaining concentration of the respective compound after time Tlast relative to the concentration at the beginning has been determined (table 2).

A short description of data set [3]: Plasma stability assay, rat serum. It counts as in vitro ADME. As for the experimental part:
as §1

Regarding `Cc1ccc(C2(NC(=O)C3C(C(=O)NCCN4CCN(C)CC4)C4CCC3C43CC3)CC2)cc1` [Example 1, (5R)-N^5-(1-(p-tolyl)cyclopropyl)-(6R)-N^6-(2-(4-methylpiperazin-1-yl)ethyl)-(4S,7R)-[4,7-ethylene-spiro[2.4]heptane]-5,6-dicarboxamide], the EC50 in data set [1] was 9.4 nM. Besides, the “remaining concentration at Tlast” value came out at 82% in data set [2] (Tlast 6 h, 1 μM, 37° C.) and 100% in data set [3] (Tlast 6 h, 1 μM, 37° C.). In addition, the half-life at 1 μM in data set [2] (pH 7.4, 37° C.) was above 360 min; in data set [3] (pH 7.4, 37° C.) it was above 360 min.
